Drawing on ChEMBL document CHEMBL4261619, “Sentulic acid isolated from Sandoricum koetjape Merr attenuates lipopolysaccharide and interferon gamma co-stimulated nitric oxide production in murine macrophage RAW264 cells” (Bioorg Med Chem Lett, 2018), this text covers inhibition and fold change (FC) for 1 compound.

The structures appear in SMILES notation. Active and inactive are the calls of the source. The rule behind the calls is not given here.

Format in all cases: cell-based
The target in assay [1] is T1, Toll-like receptor 4 (Mus musculus) (UniProt Q9QUK6).
T1 sequence (whole entry): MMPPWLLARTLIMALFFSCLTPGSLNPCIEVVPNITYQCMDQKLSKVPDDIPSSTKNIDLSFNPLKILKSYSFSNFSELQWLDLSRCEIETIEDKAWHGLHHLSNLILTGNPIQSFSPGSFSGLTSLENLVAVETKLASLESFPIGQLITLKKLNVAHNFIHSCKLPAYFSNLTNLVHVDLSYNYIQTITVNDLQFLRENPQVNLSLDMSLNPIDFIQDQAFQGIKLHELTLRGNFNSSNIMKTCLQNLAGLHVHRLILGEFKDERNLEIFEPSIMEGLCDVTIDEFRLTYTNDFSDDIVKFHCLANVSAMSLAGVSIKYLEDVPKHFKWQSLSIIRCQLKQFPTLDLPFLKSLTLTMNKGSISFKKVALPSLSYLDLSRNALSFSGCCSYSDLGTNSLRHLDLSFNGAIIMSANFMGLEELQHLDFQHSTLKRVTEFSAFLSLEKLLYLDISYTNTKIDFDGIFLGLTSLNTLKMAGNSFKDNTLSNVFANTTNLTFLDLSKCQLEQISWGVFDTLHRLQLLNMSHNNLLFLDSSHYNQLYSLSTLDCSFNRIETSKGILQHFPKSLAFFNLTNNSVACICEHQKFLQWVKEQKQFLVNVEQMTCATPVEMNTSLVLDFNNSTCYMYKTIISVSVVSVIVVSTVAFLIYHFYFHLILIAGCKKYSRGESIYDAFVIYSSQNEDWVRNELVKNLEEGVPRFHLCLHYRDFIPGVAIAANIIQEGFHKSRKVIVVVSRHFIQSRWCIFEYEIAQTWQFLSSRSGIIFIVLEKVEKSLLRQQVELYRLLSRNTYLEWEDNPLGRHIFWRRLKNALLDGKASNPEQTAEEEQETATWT
Briefly: Inhibition of LPS binding to TLR4 in IFNgamma-stimulated mouse RAW264.7 cells assessed as suppression of IFNgamma mRNA expression at 100 uM by qRT-PCR analysis.

Assay [2] concerns the target T1, Toll-like receptor 4 (Mus musculus). Briefly: Inhibition of LPS binding to TLR4 in IFNgamma-stimulated mouse RAW264.7 cells assessed as effect on ratio of phosphorylated JNK to total JNK at 100 uM measured after 120 mins by Western blot analysis relative to beta-actin (reference value: 1). (A western blot detects proteins with antibodies after separation by electrophoresis.)

For assay [3] the target is unchanged. Briefly: Inhibition of LPS binding to TLR4 in IFNgamma-stimulated mouse RAW264.7 cells assessed as effect on ratio of phosphorylated JNK to total JNK at 100 uM measured after 15 mins by Western blot analysis relative to beta-actin (reference value: 2).
Assay [4] shares this target. Briefly: Inhibition of LPS binding to TLR4 in IFNgamma-stimulated mouse RAW264.7 cells assessed as effect on ratio of phosphorylated ERK to total ERK at 100 uM measured after 120 mins by Western blot analysis relative to beta-actin (reference value: 3).
Assay [5] shares this target. Description: Inhibition of LPS binding to TLR4 in IFNgamma-stimulated mouse RAW264.7 cells assessed as effect on ratio of phosphorylated JNK to total JNK at 100 uM measured after 60 mins by Western blot analysis relative to beta-actin (reference value: 1.4).
Assay [6] shares this target. Description: Inhibition of LPS binding to TLR4 in IFNgamma-stimulated mouse RAW264.7 cells assessed as effect on ratio of phosphorylated NFkappaB to total NFkappaB at 100 uM measured after 120 mins by Western blot analysis relative to beta-actin (reference value: 1.2).
For assay [7] the target is unchanged. Description: Inhibition of LPS binding to TLR4 in IFNgamma-stimulated mouse RAW264.7 cells assessed as suppression of NFkappaB nuclear translocation.
For assay [8] the target is unchanged. Briefly: Inhibition of LPS binding to TLR4 in IFNgamma-stimulated mouse RAW264.7 cells assessed as effect on ratio of phosphorylated ERK to total ERK at 100 uM measured after 15 mins by Western blot analysis relative to beta-actin (reference value: 0.8).
The test system of a further assay is RAW264.7. Description: Inhibition of IFNgamma binding to IFNGR in LPS-stimulated mouse RAW264.7 cells assessed as effect on ratio of phosphorylated Stat1 to total Stat1 at 100 uM measured after 60 mins by Western blot analysis relative to beta-actin (reference value: 4.1).
For assay [9], the target named is T1, Toll-like receptor 4 (Mus musculus). Description: Inhibition of LPS binding to TLR4 in IFNgamma-stimulated mouse RAW264.7 cells assessed as reduction in COX2 expression at 100 uM by Western blot analysis.
For assay [10] the target is unchanged. Briefly: Inhibition of LPS binding to TLR4 in IFNgamma-stimulated mouse RAW264.7 cells assessed as effect on ratio of phosphorylated NFkappaB to total NFkappaB at 100 uM measured after 15 mins by Western blot analysis relative to beta-actin (reference value: 4.7).
Assay [11] shares this target. Briefly: Inhibition of LPS binding to TLR4 in IFNgamma-stimulated mouse RAW264.7 cells assessed as effect on ratio of phosphorylated ERK to total ERK at 100 uM measured after 30 mins by Western blot analysis relative to beta-actin (reference value: 0.8).
Assay [12] shares this target. Briefly: Inhibition of LPS binding to TLR4 in IFNgamma-stimulated mouse RAW264.7 cells assessed as effect on ratio of phosphorylated p38 to total p38 at 100 uM measured after 30 mins by Western blot analysis relative to beta-actin (reference value: 4.8).
Assay [13] shares this target. Description: Inhibition of LPS binding to TLR4 in IFNgamma-stimulated mouse RAW264.7 cells assessed as suppression of IL-12 mRNA expression at 100 uM by qRT-PCR analysis.
Assay [14] has the same target. Description: Inhibition of LPS binding to TLR4 in IFNgamma-stimulated mouse RAW264.7 cells assessed as suppression of TNFalpha mRNA expression at 100 uM by qRT-PCR analysis. Background: In qPCR the cycle at which signal appears reflects the starting amount.
Assay [15] has the same target. Briefly: Inhibition of LPS binding to TLR4 in IFNgamma-stimulated mouse RAW264.7 cells assessed as effect on ratio of phosphorylated AKT to total AKT at 100 uM measured after 15 mins by Western blot analysis relative to beta-actin (reference value: 1.2).
Assay [16] shares this target. Description: Inhibition of LPS binding to TLR4 in IFNgamma-stimulated mouse RAW264.7 cells assessed as effect on ratio of phosphorylated NFkappaB to total NFkappaB at 100 uM measured after 30 mins by Western blot analysis relative to beta-actin (reference value: 2.7).
Assay [17] has the same target. Description: Inhibition of LPS binding to TLR4 in IFNgamma-stimulated mouse RAW264.7 cells assessed as suppression of COX2 mRNA expression at 100 uM by qRT-PCR analysis.

For the compound `C=C(C)[C@@H]1CC[C@]2(C)[C@H](CC=C3[C@@H]4CC(C)(C)CC[C@]4(C)CC[C@]32C(=O)O)[C@@]1(C)CCC(=O)O`, the inhibition entry in assay [1], in [7], in assay [13] and in assay [14] was “Active” each time. Moreover, the fold change (FC) in assay [2] stood at 1.1; in assay [3] it was 1; in assay [4], 2.2; in [5] it was 1.1; in assay [6], 1; in assay [8] it was 0.8. Besides, the fold change (FC) with RAW264.7 was found to be 1.8; in [10], 2.9; in assay [11], 0.7; in assay [12] it was 4; in assay [15], 1; in assay [16] it was 1.6. Moreover, the inhibition entry in assay [9] and in assay [17] was “inactive” each time.
